From patent publication US11786534B2 (TAIHO PHARMACEUTICAL CO., LTD., priority 2019, dated 2023)
Read-outs that look alike come from different tables or passages of the source.

What was measured:
[1] = molecular target: Ba/F3-EGFR (d746-750/T790M/C797S) (Homo sapiens, UniProt P00533, DEL746-750/T790M/C797S, cells depend on it); assay: Growth inhibition of cell line expressing EGFR (d746-750/T790M/C797S); assay type: cell-based, mouse; details: read-out: BaF3_EGFR (d746-750/T790M/C797S) IC50 value
Excerpt: (§1) Test for inhibitory activity against the growth of cell lines expressing wild-type and mutated EGFRs (in vitro)
(§2) (1) Mouse cell line Ba/F3-EGFR (d746-750/T790M/C797S) transfected with and stably expressing EGFR (d746-750/T790M/C797S), mouse cell Ba/F3-EGFR (L858R/T790M/C797S) transfected with and stably expressing EGFR (L858R/T790M/C797S), and mouse cell line Ba/F3-EGFR (WT) transfected with and stably expressing wild-type EGFR were each suspended in RPMI-1640 cell culture medium (RPMI-1640, 10% FBS, 100 unit/ml penicillin, 0.1 mg/ml streptomycin). In the case of the mouse cell line Ba/F3-EGFR (WT), RPMI-1640 cell culture medium containing EGF at a final concentration of 50 ng/ml was used to suspend this cell line. It should be noted that the mouse cell line Ba/F3-EGFR (d746-750/T790M/C797S) transfected with and stably expressing EGFR (d746-750/T790M/C797S), the mouse cell line Ba/F3-EGFR (L858R/T790M/C797S) transfected with and stably expressing EGFR (L858R/T790M/C797S) and the mouse cell line Ba/F3-EGFR (WT) transfected with and stably expressing wild-type EGFR were prepared by using nucleotide sequences encoding the proteins of SEQ ID NOs: 1 and 2 in accordance with Test Example 1 in WO2018/079310, These cell suspensions were seeded in wells of 96-well flat -bottomed plates. The compounds of the present invention were dissolved in DMSO, and serial dilutions of these test compounds were prepared with DMSO (1000-fold of the final concentration). Each test compound solution in DMSO or DMSO alone was diluted with RPMI-1640 cell culture medium for each cell line, and this dilution was added to wells of the cell culture plate such that the final concentration of DMSO was 0.1%, followed by culture at 37° C. for 3 days in a 5% carbon dioxide gas-containing incubator. Before and after addition of each test compound solution in DMSO, the number of cells was counted using the CellTiter-Glo® system (Promega) on the basis of the protocol recommended by Promega.
(§3) In each cell line, the rate of cell growth inhibition was calculated according to the equation shown below in wells to which each test compound was added at different concentrations. Moreover, the inhibition rate at each concentration was plotted for each test compound, and the concentration of each test compound required to give 50% cell survival rate, i.e., IC50 (nM) was determined by curve fitting software XLfit (IDBS).
(§4) Cell survival rate (%)=T/C×100
(§5) T: emission intensity in a well cultured for 3 days after addition of a test compound solution
(§6) C: emission intensity in a well cultured for 3 days after addition of DMSO
(§7) In accordance with the same procedures as shown in Test Example 2, the compounds of the present invention were tested for their inhibitory activity against the growth of the cell hoes expressing wild-type and mutated EGFRs.

human EGFR (L858R/C797S) = molecular target: T1, human EGFR (L858R/C797S) (Homo sapiens, UniProt P00533, C797S/L858R); assay: Inhibitory activity against EGFR (L858R/C797S) kinase; assay type: biochemical; details: Test Example 1, Table 5; ATP 4 μM, 90 minutes
T1 construct: purchased SignalChem
In short: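 Purified recombinant human EGFR (C797S/L858R) kinase, final ATP 4 μM, 90-minute kinase reaction, otherwise per the EGFR (d746-750/C797S) protocol. IC50 (nM) determined from inhibition data.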

[2] = molecular target: Ba/F3-EGFR (L858R/T790M/C797S) (Homo sapiens, UniProt P00533, T790M/C797S/L858R, cells depend on it); assay: Growth inhibition of cell line expressing EGFR (L858R/T790M/C797S); assay type: cell-based, mouse; details: read-out: BaF3_EGFR (L858R/T790M/C797S) IC50 value
Excerpt: as §1, §2, §3, §4, §5, §6, §7

[3] = molecular target: T2, human EGFR (d746-750/C797S) (Homo sapiens, UniProt P00533, C797S/DEL746-750); assay: Inhibitory activity against EGFR (d746-750/C797S) kinase; assay type: biochemical; details: Test Example 1, Table 4; ATP 14 μM, 60 minutes
T2 construct: purchased SignalChem
In short: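 Recombinant human EGFR d746-750/C797S in 13.5 mM Tris pH 7.5 with 2 mM DTT and 0.009% Tween-20. Reaction ran 60 min with 14 μM ATP, 20 mM MgCl2 and 12.5 mM MnCl2, stopped by 40 mM EDTA. IC50 in nM.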

[4] = Test Example 4, Table 13, same procedures as Test Example 2
[5] = Test Example 2, Table 7, culture 3 days, CellTiter-Glo

Ba/F3-EGFR (L858R/T790M/C797S), sequence (P00533 whole entry T790M/C797S/L858R): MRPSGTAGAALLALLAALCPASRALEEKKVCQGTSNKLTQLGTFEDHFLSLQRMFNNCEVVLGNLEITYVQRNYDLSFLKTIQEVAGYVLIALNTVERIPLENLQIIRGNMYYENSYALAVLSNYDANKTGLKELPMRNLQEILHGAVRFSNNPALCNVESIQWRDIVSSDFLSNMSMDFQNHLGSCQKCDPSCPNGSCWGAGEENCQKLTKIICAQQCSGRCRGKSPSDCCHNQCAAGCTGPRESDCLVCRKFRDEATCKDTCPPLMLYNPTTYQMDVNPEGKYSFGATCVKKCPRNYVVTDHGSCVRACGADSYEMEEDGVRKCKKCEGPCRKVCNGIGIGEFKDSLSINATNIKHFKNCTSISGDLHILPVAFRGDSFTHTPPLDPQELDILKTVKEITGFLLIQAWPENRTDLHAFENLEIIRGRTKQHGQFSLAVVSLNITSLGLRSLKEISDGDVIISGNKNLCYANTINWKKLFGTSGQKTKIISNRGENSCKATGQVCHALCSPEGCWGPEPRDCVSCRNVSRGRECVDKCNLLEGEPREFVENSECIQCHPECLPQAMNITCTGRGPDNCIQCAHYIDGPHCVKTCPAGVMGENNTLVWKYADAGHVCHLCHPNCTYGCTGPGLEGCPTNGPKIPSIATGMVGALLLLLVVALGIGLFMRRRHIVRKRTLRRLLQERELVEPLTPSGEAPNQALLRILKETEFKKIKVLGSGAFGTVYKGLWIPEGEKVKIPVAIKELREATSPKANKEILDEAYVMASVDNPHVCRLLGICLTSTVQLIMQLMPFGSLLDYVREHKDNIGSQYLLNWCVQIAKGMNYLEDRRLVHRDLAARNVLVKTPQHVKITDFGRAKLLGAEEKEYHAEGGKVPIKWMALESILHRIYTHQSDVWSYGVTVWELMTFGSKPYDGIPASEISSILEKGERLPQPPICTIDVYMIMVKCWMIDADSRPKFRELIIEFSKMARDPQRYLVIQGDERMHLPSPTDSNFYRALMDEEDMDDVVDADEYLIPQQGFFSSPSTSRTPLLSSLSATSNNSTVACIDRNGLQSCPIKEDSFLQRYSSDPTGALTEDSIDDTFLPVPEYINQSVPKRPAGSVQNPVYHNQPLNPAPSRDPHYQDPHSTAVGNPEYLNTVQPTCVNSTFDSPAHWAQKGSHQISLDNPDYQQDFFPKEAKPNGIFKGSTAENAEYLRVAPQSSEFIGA
Ba/F3-EGFR (d746-750/T790M/C797S), sequence (P00533 with tags, fused parts or gaps DEL746-750/T790M/C797S): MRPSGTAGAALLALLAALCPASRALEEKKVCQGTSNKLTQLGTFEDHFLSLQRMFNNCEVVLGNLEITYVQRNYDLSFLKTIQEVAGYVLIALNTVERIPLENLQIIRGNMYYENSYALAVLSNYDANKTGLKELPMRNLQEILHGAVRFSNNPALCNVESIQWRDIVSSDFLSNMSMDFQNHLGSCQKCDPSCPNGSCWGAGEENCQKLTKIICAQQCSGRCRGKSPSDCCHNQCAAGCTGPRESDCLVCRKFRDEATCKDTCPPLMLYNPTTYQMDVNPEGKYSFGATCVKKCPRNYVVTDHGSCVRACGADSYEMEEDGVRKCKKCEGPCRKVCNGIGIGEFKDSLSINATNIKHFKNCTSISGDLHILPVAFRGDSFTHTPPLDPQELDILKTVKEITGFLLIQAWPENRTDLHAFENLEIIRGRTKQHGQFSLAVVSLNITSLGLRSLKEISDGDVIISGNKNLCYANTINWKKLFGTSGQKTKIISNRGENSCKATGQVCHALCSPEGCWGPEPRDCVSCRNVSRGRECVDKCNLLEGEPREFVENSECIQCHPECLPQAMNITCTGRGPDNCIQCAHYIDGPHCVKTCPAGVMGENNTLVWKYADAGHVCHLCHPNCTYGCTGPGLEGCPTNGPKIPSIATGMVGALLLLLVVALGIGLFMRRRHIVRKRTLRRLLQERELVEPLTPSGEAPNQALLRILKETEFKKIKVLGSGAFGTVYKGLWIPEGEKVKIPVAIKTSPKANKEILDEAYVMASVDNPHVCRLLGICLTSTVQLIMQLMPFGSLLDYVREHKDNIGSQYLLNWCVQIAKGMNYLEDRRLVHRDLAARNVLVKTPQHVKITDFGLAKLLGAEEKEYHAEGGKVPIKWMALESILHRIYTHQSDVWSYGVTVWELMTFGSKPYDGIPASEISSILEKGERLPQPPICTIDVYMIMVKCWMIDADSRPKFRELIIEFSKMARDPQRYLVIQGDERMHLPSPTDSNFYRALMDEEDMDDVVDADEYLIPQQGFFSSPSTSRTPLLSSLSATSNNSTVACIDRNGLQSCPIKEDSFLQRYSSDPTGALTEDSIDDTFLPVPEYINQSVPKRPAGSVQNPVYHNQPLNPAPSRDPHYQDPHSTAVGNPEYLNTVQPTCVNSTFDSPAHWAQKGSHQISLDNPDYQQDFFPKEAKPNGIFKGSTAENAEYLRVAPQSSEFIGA
T2 sequence (P00533 with tags, fused parts or gaps DEL746-750/C797S): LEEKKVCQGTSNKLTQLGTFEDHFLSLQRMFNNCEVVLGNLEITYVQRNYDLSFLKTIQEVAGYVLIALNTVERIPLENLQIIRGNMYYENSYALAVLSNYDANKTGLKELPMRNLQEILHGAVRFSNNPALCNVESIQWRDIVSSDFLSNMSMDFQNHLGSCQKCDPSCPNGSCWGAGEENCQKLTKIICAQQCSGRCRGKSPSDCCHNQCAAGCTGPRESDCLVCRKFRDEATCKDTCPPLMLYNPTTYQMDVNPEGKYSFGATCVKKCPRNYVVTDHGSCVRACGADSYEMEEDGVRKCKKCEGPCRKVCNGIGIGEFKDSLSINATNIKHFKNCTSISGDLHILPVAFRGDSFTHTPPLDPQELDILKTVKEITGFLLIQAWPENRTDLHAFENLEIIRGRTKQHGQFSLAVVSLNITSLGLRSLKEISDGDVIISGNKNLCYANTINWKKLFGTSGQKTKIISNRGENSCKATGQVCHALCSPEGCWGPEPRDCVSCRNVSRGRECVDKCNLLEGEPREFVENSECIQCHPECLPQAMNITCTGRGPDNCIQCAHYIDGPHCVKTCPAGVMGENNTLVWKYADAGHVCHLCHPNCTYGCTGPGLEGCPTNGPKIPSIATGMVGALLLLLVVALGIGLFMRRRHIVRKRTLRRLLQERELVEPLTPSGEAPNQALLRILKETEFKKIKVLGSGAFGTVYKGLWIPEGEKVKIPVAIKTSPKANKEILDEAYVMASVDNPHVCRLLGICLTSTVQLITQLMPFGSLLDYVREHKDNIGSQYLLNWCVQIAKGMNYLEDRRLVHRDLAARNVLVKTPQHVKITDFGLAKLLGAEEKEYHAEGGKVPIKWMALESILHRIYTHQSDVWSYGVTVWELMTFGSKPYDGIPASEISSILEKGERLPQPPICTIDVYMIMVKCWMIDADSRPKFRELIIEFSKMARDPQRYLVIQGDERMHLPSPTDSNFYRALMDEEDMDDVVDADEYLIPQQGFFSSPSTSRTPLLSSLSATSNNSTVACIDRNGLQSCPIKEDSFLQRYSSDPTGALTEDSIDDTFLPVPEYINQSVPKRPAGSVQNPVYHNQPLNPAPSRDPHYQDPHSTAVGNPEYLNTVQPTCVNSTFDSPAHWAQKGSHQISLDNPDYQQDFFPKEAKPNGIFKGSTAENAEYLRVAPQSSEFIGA
T1 sequence (P00533 25-1210 C797S/L858R): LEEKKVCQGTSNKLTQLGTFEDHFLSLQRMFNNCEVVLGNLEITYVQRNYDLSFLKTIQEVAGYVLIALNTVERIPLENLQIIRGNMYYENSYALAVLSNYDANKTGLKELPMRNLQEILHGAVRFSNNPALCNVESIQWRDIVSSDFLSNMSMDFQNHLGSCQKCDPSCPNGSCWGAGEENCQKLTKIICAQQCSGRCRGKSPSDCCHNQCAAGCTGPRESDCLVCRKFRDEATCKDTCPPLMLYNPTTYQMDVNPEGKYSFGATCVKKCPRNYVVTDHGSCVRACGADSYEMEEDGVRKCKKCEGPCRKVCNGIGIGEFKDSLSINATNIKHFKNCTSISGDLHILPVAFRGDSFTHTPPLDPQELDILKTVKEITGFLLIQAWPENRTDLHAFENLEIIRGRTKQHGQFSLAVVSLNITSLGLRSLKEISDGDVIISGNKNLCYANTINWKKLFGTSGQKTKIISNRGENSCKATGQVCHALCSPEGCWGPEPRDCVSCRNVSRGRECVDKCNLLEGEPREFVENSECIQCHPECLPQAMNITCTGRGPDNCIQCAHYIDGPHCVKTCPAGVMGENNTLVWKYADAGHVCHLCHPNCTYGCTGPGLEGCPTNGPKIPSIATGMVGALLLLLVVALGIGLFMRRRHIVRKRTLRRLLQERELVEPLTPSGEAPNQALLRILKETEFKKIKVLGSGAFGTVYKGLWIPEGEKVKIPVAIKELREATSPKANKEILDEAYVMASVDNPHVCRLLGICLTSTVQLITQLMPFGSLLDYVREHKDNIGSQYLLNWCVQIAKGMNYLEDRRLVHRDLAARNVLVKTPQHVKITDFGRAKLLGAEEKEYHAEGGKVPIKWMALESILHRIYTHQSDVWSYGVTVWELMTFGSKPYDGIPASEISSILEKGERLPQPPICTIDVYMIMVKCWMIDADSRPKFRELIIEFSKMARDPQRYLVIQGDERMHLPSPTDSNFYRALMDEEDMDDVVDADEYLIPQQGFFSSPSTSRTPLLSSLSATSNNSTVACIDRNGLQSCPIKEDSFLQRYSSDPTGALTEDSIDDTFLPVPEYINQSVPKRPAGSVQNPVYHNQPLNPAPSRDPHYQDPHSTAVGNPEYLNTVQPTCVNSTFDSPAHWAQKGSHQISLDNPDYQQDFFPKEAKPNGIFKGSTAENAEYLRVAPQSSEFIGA

GI50 [1, 4] | IC50 (human EGFR (L858R/C797S)) | GI50 [2, 4] | IC50 [3] | GI50 [1, 5] | GI50 [2, 5] | Structure (SMILES)
59 nM | 0.99 nM | 448 nM | 0.61 nM | – | – | C#Cc1c(-c2cnc3ccccc3c2)c2c(N)ncnc2n1C12CCC(NC(=O)c3noc(C)n3)(CC1)C2 [Example 36, N-(4-(4-Amino-6-ethynyl-5-(quinolin-3-yl)-7H-pyrrolo[2,3-d]pyrimidin-7-yl)-bicyclo-[2.2.1]heptan-1-yl)-5-methyl-1,2,4-oxadiazole-3-carboxamide]
– | 0.69 nM | – | 0.5 nM | 21 nM | 270 nM | C#Cc1c(-c2cnc3ccccc3c2)c2c(N)ncnc2n1C12CCC(NC(=O)c3cnc(C)cn3)(CC1)C2 [Example 37, N-(4-(4-Amino-6-ethynyl-5-(quinolin-3-yl)-7H-pyrrolo[2,3-d]pyrimidin-7-yl)-bicyclo-[2.2.1]heptan-1-yl)-5-methylpyrazine-2-carboxamide]
98 nM | 1.4 nM | 658 nM | 0.75 nM | – | – | C#Cc1c(-c2cnc3ccccc3c2)c2c(N)ncnc2n1C12CCC(NC(C)=O)(CC1)C2 [Example 39, N-(4-(4-Amino-6-ethynyl-5-(quinolin-3-yl)-7H-pyrrolo[2,3-d]pyrimidin-7-yl)-bicyclo-[2.2.1]heptan-1-yl)acetamide]
102 nM | 1.9 nM | 843 nM | 1.4 nM | – | – | C#Cc1c(-c2cnc3ccccc3c2)c2c(N)ncnc2n1C12CCC(NC(=O)c3ccco3)(CC1)C2 [Example 41]
– | 0.49 nM | – | 0.73 nM | 57 nM | 417 nM | C#Cc1c(-c2cnc3ccccc3c2)c2c(N)ncnc2n1C12CCC(NC(=O)c3ccncc3)(CC1)C2 [Example 43]
30 nM | 0.94 nM | 268 nM | 0.73 nM | – | – | C#Cc1c(-c2cnc3ccccc3c2)c2c(N)ncnc2n1C12CCC(NC(=O)c3ccno3)(CC1)C2 [Example 44]
– | 0.53 nM | – | 0.67 nM | 42 nM | 305 nM | C#Cc1c(-c2cnc3ccccc3c2)c2c(N)ncnc2n1C12CCC(NC(=O)c3cccnc3)(CC1)C2 [Example 45]
– | 0.43 nM | – | 0.43 nM | 19 nM | 204 nM | C#Cc1c(-c2cnc3ccccc3c2)c2c(N)ncnc2n1C12CCC(NC(=O)c3ncco3)(CC1)C2 [Example 46]
– | 0.6 nM | – | 0.46 nM | 24 nM | 223 nM | C#Cc1c(-c2cnc3ccccc3c2)c2c(N)ncnc2n1C12CCC(NC(=O)c3cnccn3)(CC1)C2 [Example 48]
– | 0.63 nM | – | 0.49 nM | 19 nM | 290 nM | C#Cc1c(-c2cnc3ccccc3c2)c2c(N)ncnc2n1C12CCC(NC(=O)c3cccnn3)(CC1)C2 [Example 49]
162 nM | 1.2 nM | 978 nM | 0.88 nM | – | – | C#Cc1c(-c2cnc3ccccc3c2)c2c(N)ncnc2n1C12CCC(NC(=O)c3nccs3)(CC1)C2 [Example 53]
